Laboratory results: US20150359802A1, “PARENTERAL PHARMACEUTICAL FORM WHICH RELEASES AROMATSE INHIBITOR AND GESTAGENS, FOR THE TREATMENT OF ENDOMETRIOSIS” (Bayer Intellectual Property GmbH, priority 2010, published 2015)
Entries after “also recorded” stand apart in the source; their conditions may differ. Read-outs that look alike come from different tables or passages of the source.

What was measured:
ovulation = conditions: cited from earlier work
ovarian stimulation = conditions: applied orally; cited from earlier work
pituitary-ovarian axis = test: IVR study in cynomolgus monkeys: estradiol, FSH and progesterone levels; format: in vivo, cynomolgus monkey
Text: (§1) This comprises, among other things, cycle length, hormone receptors, morphology, endocrine system and regulation of the pituitary-ovarian axis (Borghi, M. R., R. Niesvisky, et al. (1983). “Administration of agonistic and antagonistic analogues of LH-RH induce anovulation in Macaca fasicularis.” Contraception 27(6): 619-626. Satoru Oneda, T. I., Katsumi Hamana (1996). “Ovarian Response to Exogenous Gonadotropins in Infant Cynomolgus Monkeys” International Journal of Toxicology, 15(3): 194-204). The pharmacodynamic and pharmacokinetic effect of intravaginally administered dosages of the aromatase inhibitor anastrozole was studied over the duration of a menstrual cycle by inserting a vaginal ring (IVR) having three different release rates. Among other things, the influence on the pituitary-ovarian axis was studied by determining the hormones estradiol, FSH, progesterone (the blood collections required for this were carried out over the entire experimental period; on day 1, four collections [0 h, 1 h, 3 h, 6 h after insertion of the IVR]; 1 collection each on days 2 and 3; after this time point, further collections followed on every 3rd day) and by ultrasound scans of the ovary (2× per week). Hormone determination was carried out according to the instructions provided by the supplier (estradiol [Siemens/DPC], progesterone [Beckmann-Culter/DSL], FSH [SHG]). An IVR having an initial in vitro release of 0 μg/day (placebo, no anastrozole), 390 μg/day, 85 μg/day or 27 μg/day was inserted into five animals per group one to three days after the last day of menstruation. Animals having irregular cycles were excluded from the experiment.

ovary = test: IVR study in cynomolgus monkeys: ultrasound scans of the ovary; format: in vivo, cynomolgus monkey; conditions: for Ovarian cysts (ultrasound): cycle days 1-26
Text: as §1

[1] = cited from earlier work
in vivo = conditions: female, cynomolgus monkey, plasma, iv, 0.2 mg/kg
[2] = Estimation of IVR release rate and serum level for human application
Method: Subsequently, an estimation was made of the in vitro IVR release rate of an IVR for human application, which is necessary to achieve serum levels which led to a lowering of estradiol in the monkeys. […] The corresponding effective serum concentration in humans is estimated to be 9 μg/l, taking into account species-specific plasma protein binding, according to equation (1) below.
The mean in vivo release rate from the IVR which is necessary to achieve a plasma concentration of 9 μg/l in humans is calculated according to equation 2. For this equation, the plasma clearance of anastrozole in humans is required.

[3] = Plasma protein binding by equilibrium dialysis, human plasma; format: in vitro ADME; conditions: human, plasma, seven hours at 37° C., read-out: Plasma protein binding [free fraction, fu]
plasma protein [4] = test: as above; format: in vitro ADME; conditions: seven hours at 37° C.
systemic estrogen levels = conditions: 1 mg/day, post-menopausal women; cited from earlier work
[5] = Plasma concentration of anastrozole after IVR administration and PK-based in vivo release; parameters: species or system female cynomolgus monkeys; conditions: in vitro release in buffer vs calculated in vivo release, primate experiment
Method: The concentration of anastrozole in plasma samples was quantitatively determined by means of liquid-liquid extraction with liquid chromatography coupled to tandem mass spectrometry (LC/ESI-MS/MS). The analyses were carried out on an Agilent 1200 and an AB Sciex Triple Quad 5500 in positive ionization mode. For this purpose, 100 μl were initially taken from each plasma sample, admixed with 300 μl of an aqueous solution containing any non-structurally-related compound as internal standard, and extracted with 1.3 ml of methyl tert-butyl ether on a Perkin Elmer Mass Prep Station. […] 5 μl of this were injected into the LC/MS/MS, the m/z transition 294 ([M+H]+)→225 was recorded, and the signal was integrated with the AB Sciex Software Analyst 1.5. The concentrations of the plasma samples were determined from the resulting areas with the aid of a calibration curve present in the same sequence (0, 0.0500 to 1000 nM in plasma, n=2). […]
The mean plasma concentration (Css) of anastrozole was calculated as the mean value of all measured concentrations per dose group from the day after insertion of the IVR up to the end of the experiment.
The mean in vivo release rates (Rin) from the IVR were subsequently calculated according to the equation: Rin=Css*CL (see table X). […]

[6] = Plasma protein binding by equilibrium dialysis, cynomolgus monkey plasma; format: in vitro ADME; conditions: cynomolgus monkey, plasma, seven hours at 37° C., read-out: Plasma protein binding [free fraction, fu]
plasma protein [7] = test: as above; format: in vitro ADME; conditions: seven hours at 37° C.
[8] = IVR 27 μg/day initial in vitro release
[9] = IVR 85 μg/day initial in vitro release
[10] = IVR 390 μg/day initial in vitro release

C#C[C@]1(OC(C)=O)CC[C@H]2[C@@H]3CCC4=CC(=NO)CC[C@@H]4[C@H]3CC[C@@]21CC (mixture of isomers) [Norgestimate]
Ovulation inhibition dose (ovulation; Neumann et al): 200 μg/day p.o.
Ovulation inhibition dose (ovulation; Taubert & Kuhl): 200 μg/day p.o.

C#C[C@]1(O)CC[C@H]2[C@@H]3CCC4=CC(=O)CC[C@@H]4[C@H]3C(=C)C[C@@]21CC [3-Keto-Desogestrel]
Ovulation inhibition dose (ovulation; Taubert & Kuhl): 60 μg/day p.o.

CC(C)(C#N)c1cc(Cn2cncn2)cc(C(C)(C)C#N)c1 [Anastrozole, anastrozole]
oral dosage at which ovarian stimulation can occur (ovarian stimulation): 1 mg
estradiol levels during the follicular phase compared to the placebo group (pituitary-ovarian axis; 390 μg per day initial release, P value <0.0478): lowers the estradiol levels significantly; also recorded: significant fall during the follicular phase
E2 AUC (cycle days 1-26) (pituitary-ovarian axis; [8]): 4862 ± 1986 pmol/L
E2 AUC (follicular, cycle days 1-17) (pituitary-ovarian axis; [8]): 3854 ± 927.5 pmol/L/day
E2 AUC (luteal, cycle days 17-26) (pituitary-ovarian axis; [8]): 403.2 ± 169.7 pmol/L
FSH Mean level/day without preovulatory maximum (pituitary-ovarian axis; [8]): 5.52 ± 3.07 µg/L
Progesterone Mean level/day Follicular phase (pituitary-ovarian axis; [8]): 5.57 ± 5.11 nmol/L
Progesterone Mean level/day Luteal phase (pituitary-ovarian axis; [8]): 91.92 ± 52.78 nmol/L
E2 AUC (cycle days 1-26) (pituitary-ovarian axis; [9]): 4126 ± 2063 pmol/L
E2 AUC (follicular, cycle days 1-17) (pituitary-ovarian axis; [9]): 3235 ± 1101 pmol/L/day
E2 AUC (luteal, cycle days 17-26) (pituitary-ovarian axis; [9]): 605.1 ± 264.1 pmol/L
FSH Mean level/day without preovulatory maximum (pituitary-ovarian axis; [9]): 4.90 ± 2.58 µg/L
Progesterone Mean level/day Follicular phase (pituitary-ovarian axis; [9]): 6.58 ± 3.91 nmol/L
Progesterone Mean level/day Luteal phase (pituitary-ovarian axis; [9]): 60.02 ± 22.65 nmol/L
E2 AUC (cycle days 1-26) (pituitary-ovarian axis; [10]): 2784 ± 999.8 pmol/L
E2 AUC (follicular, cycle days 1-17) (pituitary-ovarian axis; [10]): 1978 ± 350.6 pmol/L/day
E2 AUC (luteal, cycle days 17-26) (pituitary-ovarian axis; [10]): 342.9 ± 135.2 pmol/L
FSH Mean level/day without preovulatory maximum (pituitary-ovarian axis; [10]): 4.83 ± 2.91 µg/L
Progesterone Mean level/day Follicular phase (pituitary-ovarian axis; [10]): 4.58 ± 2.64 nmol/L
Progesterone Mean level/day Luteal phase (pituitary-ovarian axis; [10]): 92.88 ± 55.50 nmol/L
counterregulation by the pituitary-ovarian axis (pituitary-ovarian axis; at the dosages used (27, 85, 390 μg/day), compared to placebo): fails to occur
Ovarian cysts (ultrasound) (ovary; [8]): None
Ovarian cysts (ultrasound) (ovary; [9]): None
Ovarian cysts (ultrasound) (ovary; [10]): None
formation of ovarian cysts (ovary; at the dosages used (27, 85, 390 μg/day)): no formation of ovarian cysts
CLpl (CL/F) ([1]; Human, oral administration): 0.33 mL/min/kg
oral bioavailability (F) ([1]; humans): approximately 1
clearance (in vivo): 9.67 mL/min/kg
initial in vitro release rate, for humans ([2]; […]): about 350 μg per day
Calculated initial in vitro IVR release rate (in buffer) with a decreasing release rate ([2]; decrease 32% in 4 weeks, human dose): ≈350 μg/day/60 kg patient
corresponding effective serum concentration in humans ([2]; from monkey Css 5.9 μg/l, corrected for species-specific plasma protein binding): 9 µg/L
constant in vitro release rate in buffer, for humans ([2]; in vitro/in vivo correction factor 1.1): 270 µg/day
human in vivo release rate, kept constant ([2]; to achieve levels that lowered estradiol in the monkeys): 246 µg/day
Calculated constant in vitro IVR release rate (in buffer) ([2]; to maintain in humans plasma levels of the effective dose in cynomolgus monkeys): ≈270 μg/day/60 kg patient
Calculated constant in vivo IVR release rate in humans ([2]; to maintain plasma levels of the effective dose in cynomolgus monkeys): ≈250 μg/day/60 kg patient
fraction unbound at 7 h [3]: 0.34
Plasma protein binding [free fraction, fu] (plasma protein [4]): 52%
reduction of systemic estrogen levels (systemic estrogen levels): more than 85%
in vitro/in vivo correction factor [5]: 1.1
fraction unbound at 7 h [6]: 0.52
Plasma protein binding [free fraction, fu] (plasma protein [7]): 34%

CC(=O)O[C@]1(C(C)=O)CC[C@H]2[C@@H]3C=C(Cl)C4=CC(=O)CC[C@]4(C)[C@H]3CC[C@@]21C [Chlormanidone acetate]
Ovulation inhibition dose (ovulation; Neumann et al): 1500-2000 μg/day p.o.
Ovulation inhibition dose (ovulation; Taubert & Kuhl): 1700 μg/day p.o.

CC(=O)O[C@]1(C(C)=O)CC[C@H]2[C@@H]3C=C(Cl)C4=CC(=O)[C@@H]5C[C@@H]5[C@]4(C)[C@H]3CC[C@@]21C [Cyproterone acetate]
Ovulation inhibition dose (ovulation; Neumann et al): 1000 μg/day p.o.
Ovulation inhibition dose (ovulation; Taubert & Kuhl): 1000 μg/day p.o.

C#C[C@]1(O)CC[C@H]2[C@@H]3CCC4=CCCC[C@@H]4[C@H]3C(=C)C[C@@]21CC [Desogestrel]
Ovulation inhibition dose (ovulation; Neumann et al): 60 μg/day p.o.
Ovulation inhibition dose (ovulation; Taubert & Kuhl): 60 μg/day p.o.

C[C@]12CCC3=C4CCC(=O)C=C4CC[C@H]3[C@@H]1CC[C@@]2(O)CC#N [Dienogest]
Ovulation inhibition dose (ovulation; Neumann et al): 1000 μg/day p.o.

C[C@]12CCC(=O)C=C1[C@@H]1C[C@@H]1[C@H]1[C@@H]3[C@@H]4C[C@@H]4[C@@]4(CCC(=O)O4)[C@@]3(C)CC[C@@H]12 [Drospirenone]
Ovulation inhibition dose (ovulation; Neumann et al): 2000 μg/day p.o.

C#C[C@]1(O)C=C[C@H]2[C@@H]3CCC4=CC(=O)CC[C@@H]4[C@H]3CC[C@@]21CC [Gestodene]
Ovulation inhibition dose (ovulation; Neumann et al): 30 μg/day p.o.
Ovulation inhibition dose (ovulation; Taubert & Kuhl): 30 μg/day p.o.

N#Cc1ccc(C(c2ccc(C#N)cc2)n2cncn2)cc1 [Letrozole, letrozole]
oral dosage at which ovarian stimulation can occur (ovarian stimulation): 2.5 mg

C#C[C@]1(O)CC[C@H]2[C@@H]3CCC4=CCCC[C@@H]4[C@H]3CC[C@@]21C [Lynestrenol]
Ovulation inhibition dose (ovulation; Neumann et al): 2000 μg/day p.o.
Ovulation inhibition dose (ovulation; Taubert & Kuhl): 2000 μg/day p.o.

CC(=O)O[C@]1(C(C)=O)CC[C@H]2[C@@H]3C[C@H](C)C4=CC(=O)CC[C@]4(C)[C@H]3CC[C@@]21C [Medroxyprogesterone acetate]
Ovulation inhibition dose (ovulation; Neumann et al): 10 μg/day p.o.

C#C[C@]1(OC(C)=O)CC[C@H]2[C@@H]3CCC4=CC(=O)CC[C@@H]4[C@H]3CC[C@@]21C [Norethisterone acetate]
Ovulation inhibition dose (ovulation; Neumann et al): 500 μg/day p.o.

C#C[C@]1(O)CC[C@H]2[C@@H]3CCC4=CC(=O)CC[C@@H]4[C@H]3CC[C@@]21C [Norethisterone]
Ovulation inhibition dose (ovulation; Neumann et al): 500 μg/day p.o.
Ovulation inhibition dose (ovulation; Taubert & Kuhl): 400 μg/day p.o.
